US5789431A, “Naphthoquinone antitumor compound and method” (The University of North Carolina at Chapel Hill, priority 1996, dated 1998)

Tests used:
[1] = tested on: NCI-H522; experiment: in vitro non-small cell lung cancer cell growth inhibition (NCI screen)
[2] = tested on: LOX1MVI; experiment: in vitro melanoma cell growth inhibition (NCI screen)
[3] = tested on: SK-MEL-5; experiment: as above
[4] = tested on: XF-498; experiment: in vitro CNS cancer cell growth inhibition (NCI screen)
[5] = tested on: ACHN; experiment: in vitro renal cancer cell growth inhibition (NCI screen)
[6] = tested on: MALME-3M; experiment: in vitro melanoma cell growth inhibition (NCI screen)
[7] = tested on: HT 29; experiment: in vitro colon cancer cell growth inhibition (NCI screen)
[8] = tested on: HL-60(TB); experiment: in vitro leukemia cell growth inhibition (NCI screen)
[9] = tested on: M19-MEL; experiment: in vitro melanoma cell growth inhibition (NCI screen)
[10] = tested on: SN12C; experiment: in vitro renal cancer cell growth inhibition (NCI screen)
[11] = tested on: UO-31; experiment: as above
[12] = tested on: NCI-H460; experiment: in vitro non-small cell lung cancer cell growth inhibition (NCI screen)
[13] = tested on: SNB-75; experiment: in vitro CNS cancer cell growth inhibition (NCI screen)
[14] = tested on: UACC-257; experiment: in vitro melanoma cell growth inhibition (NCI screen)
[15] = tested on: MOLT-4; experiment: in vitro leukemia cell growth inhibition (NCI screen)
[16] = tested on: OVCAR-3; experiment: in vitro ovarian cancer cell growth inhibition (NCI screen)
[17] = tested on: K-562; experiment: in vitro leukemia cell growth inhibition (NCI screen)
[18] = tested on: SR; experiment: as above
[19] = tested on: HOP-92; experiment: in vitro non-small cell lung cancer cell growth inhibition (NCI screen)
[20] = tested on: UACC-62; experiment: in vitro melanoma cell growth inhibition (NCI screen)
[21] = tested on: NCI-H23; experiment: in vitro non-small cell lung cancer cell growth inhibition (NCI screen)
[22] = tested on: RXF-393; experiment: in vitro renal cancer cell growth inhibition (NCI screen)
[23] = tested on: MDA-N; experiment: in vitro breast cancer cell growth inhibition (NCI screen)
[24] = tested on: COLO-205; experiment: in vitro colon cancer cell growth inhibition (NCI screen)
[25] = tested on: HCT-116; experiment: as above
[26] = tested on: SW 620; experiment: as above
[27] = tested on: HCC-2998; experiment: as above
[28] = tested on: PC-3; experiment: in vitro prostate cancer cell growth inhibition (NCI screen)
[29] = tested on: MDA-MB-435; experiment: in vitro breast cancer cell growth inhibition (NCI screen)
[30] = tested on: MCF7/ADR-RES; experiment: as above
[31] = tested on: OVCAR-4; experiment: in vitro ovarian cancer cell growth inhibition (NCI screen); conditions: OVACR-4
[32] = tested on: M14; experiment: in vitro melanoma cell growth inhibition (NCI screen)
[33] = tested on: OVCAR-8; experiment: in vitro ovarian cancer cell growth inhibition (NCI screen)
[34] = tested on: HCT-15; experiment: in vitro colon cancer cell growth inhibition (NCI screen)
[35] = tested on: CCRF-CEM; experiment: in vitro leukemia cell growth inhibition (NCI screen)
[36] = tested on: SK-OV-3; experiment: in vitro ovarian cancer cell growth inhibition (NCI screen)
[37] = tested on: T-47D; experiment: in vitro breast cancer cell growth inhibition (NCI screen)
[38] = tested on: IGROV1; experiment: in vitro ovarian cancer cell growth inhibition (NCI screen)
[39] = tested on: human tumor cell lines; type: cell-based
[40] = tested on: RPMI-8226; experiment: in vitro leukemia cell growth inhibition (NCI screen)
[41] = tested on: SK-MEL-2; experiment: in vitro melanoma cell growth inhibition (NCI screen)
[42] = tested on: MDA-MB-231/ATCC; experiment: in vitro breast cancer cell growth inhibition (NCI screen)
[43] = tested on: MCF-7; experiment: as above
[44] = tested on: BT-549; experiment: as above
[45] = tested on: SF-539; experiment: in vitro CNS cancer cell growth inhibition (NCI screen)
[46] = tested on: KM 20L2; experiment: in vitro colon cancer cell growth inhibition (NCI screen)

Row | SMILES | cytotoxicity log GI50 [1] [M] | cytotoxicity log GI50 [3] [M] | cytotoxicity log GI50 [6] [M] | cytotoxicity log GI50 [7] [M] | cytotoxicity log GI50 [8] [M] | cytotoxicity log GI50 [9] [M] | cytotoxicity log GI50 [12] [M] | cytotoxicity log GI50 [14] [M] | cytotoxicity log GI50 [15] [M] | cytotoxicity log GI50 [16] [M] | cytotoxicity log GI50 [18] [M] | cytotoxicity log GI50 [20] [M] | cytotoxicity log GI50 [21] [M] | cytotoxicity log GI50 [23] [M] | cytotoxicity log GI50 [24] [M] | cytotoxicity log GI50 [25] [M] | cytotoxicity log GI50 [27] [M] | cytotoxicity log GI50 [29] [M] | cytotoxicity log GI50 [30] [M] | cytotoxicity log GI50 [32] [M] | other results
1 | Cc1nc2c(n1C(C)(C)C)C(=O)c1ccccc1C2=O [Compound 8] | -4.36 | -4.41 | -4.35 | -4.36 | -4.34 | -4.61 | -4.44 | -4.37 | -4.31 | -4.41 | -4.35 | -4.35 | -4.42 | – | – | – | – | – | – | – | cytotoxicity log GI50 [2]: -4.38 M; cytotoxicity log GI50 [4]: -4.36 M; cytotoxicity log GI50 [5]: -4.31 M; cytotoxicity log GI50 [10]: -4.30 M; cytotoxicity log GI50 [11]: -4.43 M; cytotoxicity log GI50 [13]: -4.50 M; cytotoxicity log GI50 [17]: -4.30 M; cytotoxicity log GI50 [19]: -5.03 M
2 | CCNC1=C(NC(=O)c2ccc(OC)cc2)C(=O)c2ccccc2C1=O [Compound 49] | -4.51 | -4.46 | -4.67 | -4.63 | – | – | – | -4.71 | -4.44 | -4.62 | – | -4.40 | -4.36 | -4.43 | -4.43 | -4.44 | -4.43 | -4.77 | -4.54 | -4.67 | cytotoxicity log GI50 [22]: -4.55 M; cytotoxicity log GI50 [26]: -4.36 M; cytotoxicity log GI50 [28]: -4.48 M; cytotoxicity log GI50 [31]: -4.46 M; cytotoxicity log GI50 [33]: -4.61 M
3 | CCCc1nc2c(n1CC)C(=O)c1ccccc1C2=O [Compound 24] | -4.62 | -4.53 | -4.65 | -4.73 | – | – | – | -4.74 | -4.77 | -4.49 | – | -4.59 | – | -4.70 | – | – | -4.51 | -4.76 | -4.58 | – | cytotoxicity log GI50 [34]: -4.55 M; cytotoxicity log GI50 [35]: -4.61 M; cytotoxicity log GI50 [36]: -4.66 M; cytotoxicity log GI50 [37]: -4.55 M; cytotoxicity log GI50 [38]: -4.57 M; GI50 ([39]; Homo sapiens, cancer cell panel, general / most cell lines, read-out: logGI50 values in the cancer cell line panel (converted)): ~10 µM; cytotoxicity log GI50 [40]: -4.50 M; cytotoxicity log GI50 [17]: -4.51 M; cytotoxicity log GI50 [31]: -4.49 M
4 | COC(=O)CCC(=O)NC1=C(Nc2ccc(OC)cc2)C(=O)c2ccccc2C1=O [Compound 56] | – | -5.75 | – | – | – | – | -5.18 | -5.37 | – | -5.48 | -5.16 | -5.67 | – | -5.74 | – | – | – | -5.69 | – | -5.22 | cytotoxicity log GI50 [2]: -5.41 M; cytotoxicity log GI50 [41]: -5.31 M; cytotoxicity log GI50 [42]: -4.63 M; cytotoxicity log GI50 [19]: -5.66 M
5 | CCNC1=C(NC(=O)c2ccc(F)cc2)C(=O)c2ccccc2C1=O [Compound 48] | -4.68 | -4.46 | -4.72 | -4.65 | – | – | – | -4.80 | -4.52 | -4.44 | – | -4.82 | -4.46 | -4.47 | -4.58 | -4.52 | -4.46 | -4.74 | -4.56 | -4.61 | cytotoxicity log GI50 [22]: -4.53 M; cytotoxicity log GI50 [34]: -4.51 M; cytotoxicity log GI50 [35]: -4.45 M; cytotoxicity log GI50 [36]: -4.73 M; cytotoxicity log GI50 [26]: -4.49 M; cytotoxicity log GI50 [38]: -4.50 M; cytotoxicity log GI50 [28]: -4.76 M; cytotoxicity log GI50 [43]: -4.52 M; cytotoxicity log GI50 [33]: -4.49 M
6 | COC(=O)CCCC(=O)NC1=C(NCc2ccccc2)C(=O)c2ccccc2C1=O [Compound 51] | – | – | -4.81 | – | -4.54 | – | – | -4.53 | -4.47 | -4.64 | – | -4.53 | – | -4.38 | -4.62 | – | -4.49 | -4.37 | -4.56 | -4.53 | cytotoxicity log GI50 [35]: -4.44 M; cytotoxicity log GI50 [44]: -4.54 M; cytotoxicity log GI50 [43]: -4.52 M; cytotoxicity log GI50 [45]: -4.44 M
7 | Cc1nc2c(n1CCN(C)C)C(=O)c1ccccc1C2=O [Compound 15] | -5.27 | -5.13 | -5.55 | -4.98 | -5.28 | -5.69 | -5.01 | – | – | -5.15 | -4.93 | -4.92 | -4.92 | – | -5.35 | – | – | – | – | -4.93 | cytotoxicity log GI50 [34]: -4.89 M; cytotoxicity log GI50 [46]: -5.20 M; cytotoxicity log GI50 [41]: -4.91 M; cytotoxicity against tumor cells (in words) ([39]; cancer cell line panel): comparable to those of compounds 6-14
8 | CC(=O)NC1=C(NCCO)C(=O)c2ccccc2C1=O [Compound 40] | -4.61 | -4.53 | -4.89 | – | -4.68 | -5.01 | – | – | – | -4.72 | – | – | – | – | – | -4.52 | – | – | – | – | cytotoxicity log GI50 [46]: -4.62 M
